Results taken from PubChem BioAssay AID2124 (Sanford-Burnham Center for Chemical Genomics, 2009).
Records with an inconclusive call do not appear. Active and inactive are the calls of the source. The rule behind the calls is not given here; tested in MIN6 cells.

Experiment: cell-permeable autofluorescent compounds in GFP channel, dose response, artefact control, imaging, high-content imaging (AID 2124);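 note: cells exposed to compound for 48 hours before fixing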
Settings: cells, GFP-channel autofluorescence, high-content imaging, at 10 µM; for z-score: stronger effect = higher value

In the case of `O=C(NC1=NCCS1)C1Cc2ccccc2CN1C(=O)c1ccccc1` (configuration not stated), the z-score was -0.34 (inactive) and the cell count was 2680 cells.
Work on `Nc1c(C(=O)C2CC2)sc2nc(-c3cccs3)cc(C(F)(F)F)c12` yielded a z-score of 0.95 and a cell count of 2750 cells.
In the case of `CN(C)c1ccc(/C=C2\C(=N)N3C(=NC2=O)Sc2cc(S(C)(=O)=O)ccc23)cc1`, the z-score was -0.29 (inactive) and the cell count was 2790 cells.
With `COc1ccc(C2C(C(=O)c3ccccc3)=C(C)Nc3nc4ccccc4n32)c(OC)c1` (configuration not stated) the z-score was -0.33 (inactive) and the cell count was 3000 cells.
With `CCOC(=O)c1ccc(NC(=O)COc2ccc(S(=O)(=O)NC(C)CC)cc2)cc1` (configuration not stated) the z-score was -0.33 (inactive) and the cell count was 3160 cells.
With `CCCCCCn1c(O)c(C=Nc2ccccc2N2CCOCC2)c(=O)[nH]c1=S` the z-score was -0.37 (inactive) and the cell count was 3050 cells.
In the case of `COc1c2c(nc3ccccc13)OC(C(C)(O)COC(C)=O)C2` (configuration not stated), the z-score was -0.33 (inactive) and the cell count was 2830 cells.
With `Cc1[nH]n(-c2ccc([N+](=O)[O-])cc2)c(=O)c1C=NCCN1CCN(C(=O)c2ccccc2F)CC1` the z-score was -0.26 (inactive) and the cell count was 3100 cells.
With `O=C(NCC1CCCO1)C1CCN(S(=O)(=O)N2CCCC2)CC1` (configuration not stated) the z-score was -0.33 (inactive) and the cell count was 3190 cells.
In the case of `CN(C)c1nc(N)nc(/C(C#N)=C/C2CC3C=CC2C3)n1` (configuration not stated), the z-score was -0.33 (inactive) and the cell count was 2780 cells.
For `O=[N+]([O-])c1ccc(N(c2ccccc2)c2ccccc2)cc1`, the z-score was -0.32 (inactive) and the cell count was 2510 cells.
For `CN1/C(=C\C=C2C(=O)NC(=S)NC2=O)C(C)(C)c2ccccc21`, the z-score was 3.61 and the cell count was 2700 cells.
`Cc1ccc(-c2ccc(/C=C(\C#N)C(=O)Nc3cc(C)nn3-c3ccccc3)o2)cc1` gave a z-score of 1.66 and a cell count of 2460 cells.
With `CC1(C)c2ccccc2N2CC(=O)NC21/C=C/c1ccco1` (configuration not stated) the z-score was -0.33 (inactive) and the cell count was 2980 cells.
For `CCCNC(=O)Cn1c(=O)/c(=C\c2ccc(-c3ccc([N+](=O)[O-])cc3)o2)s/c1=C\C(=O)C(C)(C)C`, the z-score was 2.07 and the cell count was 3100 cells.
Work on `Cc1cc(C)cc(NC(=O)/C=C/c2ccc([N+](=O)[O-])s2)c1` yielded a z-score of 0.02 and a cell count of 960 cells.
For `O=C(Nc1ccon1)c1cccc(S(=O)(=O)N2CCCCC2)c1`, the z-score was -0.39 (inactive) and the cell count was 3190 cells.
For `O=C1S/C(=C/c2ccc(N3CCOCC3)o2)C(=O)N1Cc1c(F)cccc1Cl`, the z-score was 1.3 and the cell count was 3280 cells.
In the case of `COc1cc2c(cc1NC(=O)CN1CCN(S(=O)(=O)c3ccccc3F)CC1)oc1ccccc12`, the z-score was -0.33 (inactive) and the cell count was 3180 cells.
In the case of `O=c1[nH]c2ccccc2nc1/C=C/c1ccc(F)cc1`, the z-score was -0.32 (inactive) and the cell count was 3060 cells.
Work on `O=[N+]([O-])c1ccc(N/N=C/c2c[nH]c3ccccc23)cc1` yielded a z-score of 0.33 and a cell count of 1200 cells.
With `CC(C)(C)c1cc(C(=O)NCc2cccnc2)ccn1` the z-score was -0.33 (inactive) and the cell count was 3450 cells.
`CN1/C(=C\C=C2/C(=O)Oc3ccccc3C2=O)C(C)(C)c2ccccc21` showed a z-score of 3.27 and a cell count of 3310 cells.
In the case of `CCCCCOC(=O)C1=C(C)Nc2nnnn2C1c1ccc(OC)c(OC)c1OC` (configuration not stated), the z-score was -0.39 (inactive) and the cell count was 3580 cells.
In the case of `Cc1ccn2c(NC3CCCCC3)c(C)nc2c1`, the z-score was -0.39 (inactive) and the cell count was 2990 cells.
In the case of `COc1ccc(NC2=Nc3ccccc3N3C2=Nc2c(c(C)nn2-c2ccc(C)cc2)C3c2cccnc2)cc1` (configuration not stated), the z-score was -0.31 (inactive) and the cell count was 2790 cells.
In the case of `Nc1c(C(=O)C2CC2)sc2nc(-c3ccccc3)cc(C(F)(F)F)c12`, the z-score was 0.39 and the cell count was 3090 cells.
For `CN1C(=O)CC(N2CCN(Cc3ccc(Cl)cc3)CC2)C1=O` (configuration not stated), the z-score was -0.39 (inactive) and the cell count was 2870 cells.
In the case of `CCOC(=O)CC1C(=O)NCCN1c1nc2ccc(C)cn2c(=O)c1/C=C1\SC(=S)N(CC(C)C)C1=O` (configuration not stated), the z-score was 0.66 and the cell count was 3220 cells.
For `O=C(CCl)Nc1cccc2ncccc12`, the z-score was -0.38 (inactive) and the cell count was 2060 cells.
For `O=C(c1ccc2c(c1)OCO2)N1CCCC1`, the z-score was -0.33 (inactive) and the cell count was 2960 cells.
`COc1cc2c3nnc(-c4ccccc4)c-3cn(Cc3ccccc3F)c2cc1OC` gave a z-score of 3.78 and a cell count of 770 cells.
With `COc1ccc(C2C(C(=O)N3CCOCC3)CCC(=O)N2c2ccc(OC)cc2)cc1` (configuration not stated) the z-score was -0.26 (inactive) and the cell count was 3020 cells.
In the case of `CCCc1n[nH]c2c1C(=O)C(C(=O)OC)C(C)(C)C2` (configuration not stated), the z-score was -0.39 (inactive) and the cell count was 3280 cells.
In the case of `Cc1[nH]c2ccccc2c1Cc1nnc(SCC(N)=O)o1`, the z-score was -0.26 (inactive) and the cell count was 2780 cells.
With `COC(=O)c1cc2c(-c3ccccc3)cc3ccccn3c-2c1C(=O)OC` the z-score was -0.23 (inactive) and the cell count was 2880 cells.
In the case of `CCCN1CC=C2C(C#N)=C(N)C(C#N)(C#N)C(c3cccc(OC)c3OC)C2C1` (configuration not stated), the z-score was 0.21 and the cell count was 3050 cells.
For `Cc1cc(C)n(-c2ccc(C(=O)OCC(=O)N(CC(C)C)C3CCS(=O)(=O)C3)cc2)n1` (configuration not stated), the z-score was -0.33 (inactive) and the cell count was 3480 cells.
In the case of `Cc1nn(-c2c(Cl)cc(Cl)cc2Cl)c(=O)c2ccccc12`, the z-score was -0.33 (inactive) and the cell count was 3220 cells.
In the case of `COc1ccc(OCC(=O)Nc2ccc(S(=O)(=O)Nc3cc(C)nc(C)n3)cc2)cc1`, the z-score was -0.33 (inactive) and the cell count was 3070 cells.
In the case of `CCc1cc(C(=O)OC)c(NC(=O)CC2Sc3ccc(C(F)(F)F)cc3NC2=O)s1` (configuration not stated), the z-score was -0.39 (inactive) and the cell count was 2390 cells.
For `O=C1CN(C(=O)COc2ncnc3ccccc23)c2ccccc2N1`, the z-score was -0.38 (inactive) and the cell count was 3020 cells.
With `CC(C)NC(=O)NC(=O)COC(=O)c1cccc(S(=O)(=O)N2CCCCC2)c1` the z-score was -0.39 (inactive) and the cell count was 3040 cells.
With `CC(=O)Nc1sc(/C(C#N)=C/c2ccc(Cl)c(Cl)c2)nc1-c1ccc(C)cc1` the z-score was 1.08 and the cell count was 2880 cells.
For `CC(C)C(c1nnnn1C1CCCC1)N1CCOCC1` (configuration not stated), the z-score was -0.33 (inactive) and the cell count was 3180 cells.
For `O=C(NCc1cccs1)c1ccc(N2CCCCC2)nc1`, the z-score was -0.33 (inactive) and the cell count was 2760 cells.
In the case of `O=C(O)c1cc(-c2ccncc2)nc2ccc(F)cc12`, the z-score was -0.39 (inactive) and the cell count was 3070 cells.
With `c1ccc2c(N3CCNCC3)nsc2c1` the z-score was -0.39 (inactive) and the cell count was 2010 cells.
`Cc1[nH]c2ccccc2c1/C=N/Nc1ccc([N+](=O)[O-])cc1` gave a z-score of 0.2 and a cell count of 1600 cells.
For `C1=C(N2CCOCC2)/C(=C/c2nc3ccccc3[nH]2)CC1`, the z-score was -0.33 (inactive) and the cell count was 3040 cells.
For `Cc1cc(Nc2nn(C)c(N)c2C#N)ccc1F`, the z-score was -0.33 (inactive) and the cell count was 3300 cells.
Molecule `CCCOc1cc(N(CC)CC)ccc1/C=C(/C#N)c1nc2ccc(C)cc2[nH]1` has a z-score of 0.73 and a cell count of 1370 cells.
With `COC(=O)c1[nH]c2cccc(Cl)c2c1NC(=O)CN(C)C1CCCCC1` the z-score was -0.33 (inactive) and the cell count was 3280 cells.
In the case of `CN(C)C(=O)C12CCC(C)(c3nc4ccccc4nc31)C2(C)C` (configuration not stated), the z-score was -0.38 (inactive) and the cell count was 3350 cells.
In the case of `CN(c1cccc(Cl)c1)S(=O)(=O)c1cccc(C(=O)NC2=NCCS2)c1`, the z-score was -0.33 (inactive) and the cell count was 3260 cells.
Work on `CCOC(=O)c1nn(-c2ccc(Cl)cc2Cl)c(=N)c(C#N)c1C` yielded a z-score of 0.25 and a cell count of 2790 cells.
